Source: patent US20240277713A1 (Kadmon Corporation, LLC, priority 2022, published 2024)
Where two headings read alike, the source gives them in different places.

Assays:
Sprague-Dawley rats = assay: Fertility and early embryonic development to implantation study in Sprague-Dawley rats (Example 5)
Text: This study design used naive animals of both sexes, incorporated treatment of both sexes, and provided for a recovery period for the treated males based on study outcome.
Male and female Sprague-Dawley (SD) rats were obtained from Charles River Laboratories, Raleigh, North Carolina (approximately 7 to 10 weeks of age). Using a standard, by weight, randomization procedure, 273 male and 273 female animals (weighing 229 to 497 g and 169 to 242 g, respectively, at randomization) were assigned to control, treatment, and toxicokinetic (TK) groups. The dose volume for each group was 10 mL/kg providing a dose concentration in mg/base/mL of one tenth the dose level). (In Table 24, T=Treated; U=Untreated).
Dosing began at 11 weeks of age and 70 days prior to pairing (with untreated females) for the treated males, and 14 days prior to pairing (with untreated males) for the treated females. Dosing of the males continued through the mating and postmating period to euthanasia, while dosing of the females continued through the mating period to GD 7. Females with no evidence of mating were dosed for 7 days following completion of the mating period. Males designated for the recovery phase were dosed for 70 days, and then received a 77 day recovery period.
Animals were observed cageside, for detailed clinical changes, body weights, food consumption, estrous cycle determinations, plasma analysis, sperm analysis, toxicokinetic analysis, and anatomical pathology including uterine and ovarian examinations.
Cageside observations were made at least twice daily.
Detailed clinical observations were made during treatment phases: for males, twice weekly during treatment (4 hours+/−1 hour on dosing days), and for females, daily during treatment (4 hours+/−1 hour on dosing days). During non-treatment phases (males and females), detailed clinical observations occurred weekly and also prior to the scheduled uterine examination (females) on GD 13.
For each endpoint, treatment groups were compared to the control group using the analysis outlined in Table 25. Data for some endpoints, as indicated, were transformed by an arcsin-square root transformation prior to conducting the specified analysis.

UGT1A9 = molecular target: T1, UGT1A9 (Homo sapiens, UniProt O60656); assay: Enzyme systems in vitro: UGT1A9; assay type: in vitro ADME
T1 sequence (O60656 26-530): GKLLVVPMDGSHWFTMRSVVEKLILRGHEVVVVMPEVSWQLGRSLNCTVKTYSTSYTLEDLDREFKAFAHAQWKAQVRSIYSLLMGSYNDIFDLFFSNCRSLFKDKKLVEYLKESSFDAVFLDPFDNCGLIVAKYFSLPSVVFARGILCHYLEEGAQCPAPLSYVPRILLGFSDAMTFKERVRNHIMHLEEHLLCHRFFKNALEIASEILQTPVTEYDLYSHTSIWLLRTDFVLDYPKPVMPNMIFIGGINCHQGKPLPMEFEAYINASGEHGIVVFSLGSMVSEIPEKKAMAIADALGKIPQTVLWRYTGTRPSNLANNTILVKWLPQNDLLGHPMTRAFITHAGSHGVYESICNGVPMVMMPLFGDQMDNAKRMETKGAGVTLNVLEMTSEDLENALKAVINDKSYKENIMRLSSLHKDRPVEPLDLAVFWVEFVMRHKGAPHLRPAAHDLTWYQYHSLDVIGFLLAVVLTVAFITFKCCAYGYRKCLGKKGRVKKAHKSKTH

BCRP = molecular target: T2, BCRP (Homo sapiens, UniProt Q9UNQ0); assay: Transporter systems in vitro: BCRP; assay type: in vitro ADME; conditions: clinically relevant concentrations
T2 sequence (Q9UNQ0 1-655): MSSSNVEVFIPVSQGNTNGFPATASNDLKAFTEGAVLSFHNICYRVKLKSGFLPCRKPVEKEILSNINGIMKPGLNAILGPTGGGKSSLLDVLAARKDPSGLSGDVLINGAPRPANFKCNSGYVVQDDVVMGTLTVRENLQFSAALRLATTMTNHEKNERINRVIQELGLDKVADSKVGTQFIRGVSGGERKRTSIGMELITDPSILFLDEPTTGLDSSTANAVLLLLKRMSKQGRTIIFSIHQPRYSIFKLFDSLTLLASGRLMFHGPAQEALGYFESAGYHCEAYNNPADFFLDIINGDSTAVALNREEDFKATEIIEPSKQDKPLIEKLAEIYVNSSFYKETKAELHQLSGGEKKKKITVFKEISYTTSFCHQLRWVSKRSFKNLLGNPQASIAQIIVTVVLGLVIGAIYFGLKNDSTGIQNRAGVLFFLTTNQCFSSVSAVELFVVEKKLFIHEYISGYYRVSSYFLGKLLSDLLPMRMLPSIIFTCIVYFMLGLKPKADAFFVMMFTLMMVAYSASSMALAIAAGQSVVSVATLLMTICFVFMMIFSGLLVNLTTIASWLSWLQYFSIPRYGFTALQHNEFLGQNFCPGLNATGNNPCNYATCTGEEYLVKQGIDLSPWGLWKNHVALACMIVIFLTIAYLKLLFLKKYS

rats = assay: General toxicology studies in rats; assay type: in vivo, rat
[1] = Toxicokinetic analysis in rat plasma (Example 5); assay type: in vivo; conditions: for Cmax / AUC(0-t): rat, plasma; for AUC(0-t): read-out: AUC0-24
Protocol: TK animals were dosed for 70 and 14 days for the males and females, respectively. Dosing of TK males and females was initiated simultaneously, continuing to euthanasia. Refrigerated daily aliquots of dosing formulations were brought to room temperature while continuously stirring for at least 30 minutes prior to dosing.

P-gp = P-gp (Homo sapiens, UniProt P08183); assay: Transporter systems in vitro: P-gp; assay type: in vitro ADME
[2] = Group 14 (50 mg base/kg/day), Day 1

Chain of P-gp (P08183 whole entry): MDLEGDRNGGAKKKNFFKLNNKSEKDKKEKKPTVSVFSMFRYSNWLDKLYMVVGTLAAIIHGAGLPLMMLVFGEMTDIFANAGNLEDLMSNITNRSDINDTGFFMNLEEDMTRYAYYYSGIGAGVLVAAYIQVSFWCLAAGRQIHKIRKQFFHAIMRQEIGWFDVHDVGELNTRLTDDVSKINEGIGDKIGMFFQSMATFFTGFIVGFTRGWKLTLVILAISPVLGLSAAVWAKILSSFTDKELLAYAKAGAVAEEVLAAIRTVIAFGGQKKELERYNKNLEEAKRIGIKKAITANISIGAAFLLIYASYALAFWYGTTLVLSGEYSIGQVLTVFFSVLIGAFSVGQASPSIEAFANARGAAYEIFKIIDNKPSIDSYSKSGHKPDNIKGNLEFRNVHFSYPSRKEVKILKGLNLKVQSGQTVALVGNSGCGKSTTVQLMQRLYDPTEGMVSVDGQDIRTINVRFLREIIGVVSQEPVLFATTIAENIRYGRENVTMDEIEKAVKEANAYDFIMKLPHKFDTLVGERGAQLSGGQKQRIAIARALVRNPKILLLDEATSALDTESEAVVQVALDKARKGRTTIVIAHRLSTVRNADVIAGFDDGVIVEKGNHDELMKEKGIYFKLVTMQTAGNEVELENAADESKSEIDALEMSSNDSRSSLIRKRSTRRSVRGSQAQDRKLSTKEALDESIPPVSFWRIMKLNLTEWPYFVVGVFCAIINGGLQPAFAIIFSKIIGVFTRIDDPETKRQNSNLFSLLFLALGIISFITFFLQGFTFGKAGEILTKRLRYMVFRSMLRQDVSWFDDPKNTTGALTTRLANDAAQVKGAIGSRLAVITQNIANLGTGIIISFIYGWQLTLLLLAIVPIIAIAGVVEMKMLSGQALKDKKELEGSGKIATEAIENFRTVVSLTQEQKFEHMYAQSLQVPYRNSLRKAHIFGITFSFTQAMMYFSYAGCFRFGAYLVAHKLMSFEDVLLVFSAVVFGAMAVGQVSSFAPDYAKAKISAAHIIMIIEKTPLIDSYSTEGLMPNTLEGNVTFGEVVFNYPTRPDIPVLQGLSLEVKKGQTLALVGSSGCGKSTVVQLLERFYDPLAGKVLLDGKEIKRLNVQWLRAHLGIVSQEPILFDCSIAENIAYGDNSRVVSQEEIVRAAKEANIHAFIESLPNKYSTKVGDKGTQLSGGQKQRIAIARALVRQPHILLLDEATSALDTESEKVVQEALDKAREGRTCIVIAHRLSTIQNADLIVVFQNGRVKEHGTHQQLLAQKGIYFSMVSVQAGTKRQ

CC(C)NC(=O)COc1cccc(-c2nc(Nc3ccc4[nH]ncc4c3)c3ccccc3n2)c1 [belumosudil, 2-{3-[4-(1H-indazol-5-ylamino)-2-quinazolinyl]phenoxy}-N-(propan-2-yl) acetamide]
NOAEL for female reproductive performance and fertility (Sprague-Dawley rats; female rats): 275 mg base/kg/day | dose with adverse findings in female rats (increased pre- or post-implantation loss, decreased number of viable embryos) (Sprague-Dawley rats; female, Sprague-Dawley, rat, in vivo): 275 mg/kg/day | NOAEL for general toxicity endpoints (Sprague-Dawley rats; male and female rats): 50 mg base/kg/day | NOAEL for male reproductive performance and fertility (Sprague-Dawley rats; male rats): 150 mg base/kg/day | dose in male rats with abnormal sperm findings and testes/epididymis organ changes (Sprague-Dawley rats; male, Sprague-Dawley, rat, in vivo, po): 275 mg/kg/day | reproductive and fertility indices, treated females (Sprague-Dawley rats; rat, in vivo): unaffected | NOAEL for ovarian and uterine parameters (Sprague-Dawley rats; treated females): 150 mg base/kg/day | UGT1A9 inhibition (UGT1A9): inhibitor | BCRP inhibition (BCRP): inhibits | dose with decreased follicular development in ovaries (rats): 275 mg/kg/day | AUC0-24 in rat plasma ([1]; Day 1, belumosudil 50 mg base/kg, F): 49200 ng·h/mL | AUC0-24 in rat plasma ([1]; Day 1, belumosudil 50 mg base/kg, M): 20100 ng·h/mL | AUC0-24 in rat plasma ([1]; Day 1, belumosudil 150 mg base/kg, F): 95700 ng·h/mL | AUC0-24 in rat plasma ([1]; Day 1, belumosudil 150 mg base/kg, M): 81600 ng·h/mL | AUC0-24 in rat plasma ([1]; Day 1, belumosudil 275 mg base/kg, F): 122000 ng·h/mL | AUC0-24 in rat plasma ([1]; Day 1, belumosudil 275 mg base/kg, M): 96400 ng·h/mL | AUC0-24 in rat plasma ([1]; Day 14, belumosudil 50 mg base/kg, F): 26200 ng·h/mL | AUC0-24 in rat plasma ([1]; Day 14, belumosudil 150 mg base/kg, F): 99500 ng·h/mL | AUC0-24 in rat plasma ([1]; Day 14, belumosudil 275 mg base/kg, F): 209000 ng·h/mL | AUC0-24 in rat plasma ([1]; Day 70, belumosudil 50 mg base/kg, M): 21600 ng·h/mL | AUC0-24 in rat plasma ([1]; Day 70, belumosudil 150 mg base/kg, M): 70100 ng·h/mL | AUC0-24 in rat plasma ([1]; Day 70, belumosudil 275 mg base/kg, M): 191000 ng·h/mL | sex difference in AUC0-24, females higher than males [1, 2]: ~2.44 fold | sex difference in Cmax, females higher than males [1, 2]: approximately 2.10 fold | Cmax ([1]; female, Sprague-Dawley, oral, 150 mg base/kg): 9860 ng/mL | AUC(0-t) ([1]; female, Sprague-Dawley, oral, 150 mg base/kg/day, females): 99500 ng·h/mL | Cmax ([1]; female, Sprague-Dawley, po, 50 mg/kg/day): 3200 ng/mL | AUC(0-t) ([1]; female, Sprague-Dawley, po, 50 mg/kg/day, 50 mg base/kg/day, females): 26200 ng·h/mL | Cmax ([1]; female, Sprague-Dawley, po, 275 mg/kg/day, Day 14, belumosudil 275 mg base/kg, F): 14900 ng/mL | AUC(0-t) ([1]; female, Sprague-Dawley, po, 275 mg/kg/day, 275 mg base/kg/day, females): 209000 ng·h/mL | Cmax ([1]; female, po, 50 mg/kg/day): 4540 ng/mL | Cmax ([1]; female, po, 150 mg/kg/day): 5670 ng/mL | Cmax ([1]; female, po, 275 mg/kg/day, Day 1, belumosudil 275 mg base/kg, F): 7050 ng/mL | Cmax ([1]; male, Sprague-Dawley, po, 50 mg/kg/day): 2480 ng/mL | AUC(0-t) ([1]; male, Sprague-Dawley, po, 50 mg/kg/day, 50 mg base/kg/day, males): 21600 ng·h/mL | Cmax ([1]; male, Sprague-Dawley, po, 150 mg/kg/day): 10100 ng/mL | AUC(0-t) ([1]; male, Sprague-Dawley, po, 150 mg/kg/day, 150 mg base/kg/day, males): 70100 ng·h/mL | Cmax ([1]; male, po, 50 mg/kg/day): 2170 ng/mL | Cmax ([1]; male, po, 150 mg/kg/day): 5370 ng/mL | Cmax ([1]; male, po, 275 mg/kg/day, Day 1, belumosudil 275 mg base/kg, M): 7200 ng/mL | Cmax ([1]; male, po, 275 mg/kg/day, Day 70, belumosudil 275 mg base/kg, M): 20400 ng/mL | P-gp substrate status (P-gp): substrate of P-gp | P-gp inhibition (P-gp; clinically relevant concentrations): inhibits
